Results: patent publication US11858993B2, “Multi-specific antibodies with affinity for human A33 antigen and DOTA metal complex and uses thereof” (Memorial Sloan Kettering Cancer Center, priority 2015, dated 2024)
Where “and” joins values, the source holds several entries; their conditions need not be identical. Equal values may be shown once. Entries after “also recorded” stand apart in the source; their conditions may differ. Read-outs that look alike come from different tables or passages of the source.

Key:
BSA-(Y)-DOTA-Bn = test: Biacore T100 surface plasmon resonance, binding to BSA-(Y)-DOTA-Bn
Description: (§1) Binding affinity was measured by Biacore T100.
(§2) Biacore T100 Biosensor, CM5 sensor chip, and related reagents were purchased from GE Healthcare. Recombinant human A33 protein was purchased from Novoprotein. A BSA-(Y)-DOTA-Bn conjugate was prepared as described (Cheal et al., supra). A33 and DOTA antigens were immobilized using the Amino Coupling kit (GE Healthcare). Purified bispecific antibodies and control antibodies were analyzed, and data were fit to a bivalent analyte model using the Biacore T100 evaluation software as described (Cheal et al., supra).

[1] = molecular target: T1, Recombinant human A33 protein (Homo sapiens, UniProt Q99795); test: Biacore T100 surface plasmon resonance, binding to human A33 antigen; details: Biacore T100, bivalent analyte model
T1 construct: purchased Novoprotein
T1 sequence (Q99795 22-319): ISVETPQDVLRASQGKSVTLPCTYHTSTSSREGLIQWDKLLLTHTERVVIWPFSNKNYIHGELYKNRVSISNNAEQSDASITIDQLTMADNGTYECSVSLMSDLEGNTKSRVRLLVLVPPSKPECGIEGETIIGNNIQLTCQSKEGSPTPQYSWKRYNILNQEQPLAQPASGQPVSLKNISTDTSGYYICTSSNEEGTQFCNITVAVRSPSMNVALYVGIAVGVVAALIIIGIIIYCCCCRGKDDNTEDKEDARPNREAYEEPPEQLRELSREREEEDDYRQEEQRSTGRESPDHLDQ
Description: as §1, §2

[2] = tested on: kidney, bone marrow, liver, and spleen; test: Toxicity: weight, appearance and anatomic pathology after PRIT; format: in vivo; details: PRIT-treated SW1222 mice, dual-cycle; out to 140 days where stated
Description: For dual-cycle PRIT given at 10 and 17 days post tumor inoculation, there is marked response at all dose levels with complete responses observed in a dose dependent manner. […] Toxicity was determined by monitoring weight and overall appearance at least three times per week, as well as histopathologic assessment of liver, kidney, spleen and bone marrow by MSKCC Lab of Comparative Pathology.
For 3/3 mice, the kidney, bone marrow, and liver were normal.

[3] = tested on: A33-positive SW1222 xenografts; details: for Complete Response / Cures at 40 d post-treatment: Single-cycle; for tumor volume: day 23 post tumor-inoculation, average±SEM
Description: (§3) All animal experiments were approved by the Institutional Animal Care and Use Committee of Memorial Sloan Kettering Cancer Center and institutional guidelines for the proper and humane use of animals in research were followed. Athymic nu/nu female mice (6-8 weeks old; Harlan Sprague Dawley) were allowed to acclimate in the vivarium for at least one week. […] All reagents were given intravenously (i.v.) via the lateral tail vein. […] In addition, huA33-C825 was trace radiolabeled with I-131 to estimate tumor uptake during PRIT. […] (Lindmo, T. et al., 1990, J. Immunol. Meth. 126(2):183-189). For PRIT with non-specific IgG-C825, an equivalent mg dose of a GD2-targeted bispecific antibody (hu3F8-C825) was used in place of huA33-C825. For ex vivo biodistribution analysis, mice were euthanized by CO2(g) asphyxiation, and tumor and selected organs were harvested, rinsed with water and allowed to air-dry, weighed and radioassayed by gamma scintillation counting (Perkin Elmer Wallac Wizard 3″). Count rates were background and decay corrected, converted to activities using a system calibration factor, normalized to the administered activity, and expressed as percent injected dose per gram (% ID/g). Differences in ^177Lu-activity concentration in tumor and various tissues were analyzed by Student's unpaired t test when appropriate.

[4] = tested on: A33-positive SW1222 xenografts; test: Dual-cycle PRIT therapy study; details: for Complete Response / Cures at 40 d post-treatment / absorbed radiation dose, Blood / absorbed radiation dose, Kidney / absorbed radiation dose, Tumor: Dual-cycle
Description: In a second therapy study, dual-cycle huA33-C825 PRIT treatment was investigated.
The following definitions were used to describe treatment response: a complete response (CR) is defined as tumor shrinkage to <100 mm^3. […] Excessive tumor burden is defined as >2000 mm^3.

[5] = tested on: A33-positive SW1222 tumor; test: Biodistribution of ^177Lu-activity 2-120 h p.i. following PRIT; details: 2.0 MBq ^177Lu-DOTA-Bn
Description: Briefly, ^177Lu-activity in tumor and various normal tissues determined using a biodistribution assay following PRIT with optimum A33-C825 (0.25 mg/mouse) and dextran-clearing agent doses (25% (w/w), 62.5 μg) and 2.0 MBq (˜10 pmol) of ^177Lu-DOTA-Bn. Groups of SW1222 tumor-bearing mice (n=4 to 5) were given 250 μg of huA33-C825, followed 24 h later with 25% (w/w) (62.5 μg) dextran-clearing agent, and after an additional 4 h, 2.0 MBq (˜10 pmol) of 177Lu-DOTA-Bn. […] was sacrificed at 2, 24, and 120 h p.i. of ^177Lu-DOTA-Bn for biodistribution analysis.
as §3, with “appropriate. […]” for “appropriate.”

[6] = Biacore T100, bivalent analyte model
[7] = single-cycle huA33-C825 PRIT+either 11.1 MBq or 33.3 MBq ^177Lu-DOTA-Bn
[8] = dual-cycle PRIT, 66.6 or 111 MBq ^177Lu-DOTA-Bn pooled
[9] = two cycles of PRIT+55.5 (total 111.0 MBq)

For “huA33-C825: bispecific antibody: humanized A33 IgG1 with murine C825 anti-DOTA-Bn scFv linked to the light chain C-terminus”, the koff (BSA-(Y)-DOTA-Bn; [6]) was 0.00022 s⁻¹, the kon (BSA-(Y)-DOTA-Bn; [6]) was 19000 M⁻¹ s⁻¹ and the Kd (BSA-(Y)-DOTA-Bn; FIG. 2B) was 11.6 nM. For the same substance, the koff [1] was 0.00581 s⁻¹, the kon [1] was 91500 M⁻¹ s⁻¹ and the “toxicity (clinical, histologic)” value [2] was “no clinical or histologic evidence of radiation induced toxicities; also recorded: no toxicity was observed; also recorded: no detectable toxicity”. For the same substance, the “Complete Response” value ([3]; + 11.1 MBq) was 0/8, the “Cures at 40 d post-treatment” value ([3]; + 11.1 MBq) was 0/8 and the “Complete Response” value ([3]; + 33.3 MBq) was 0/8. The “Cures at 40 d post-treatment” value ([3]; + 33.3 MBq) was 0/8, the tumor volume ([3]; 11.1 MBq ^177Lu-DOTA-Bn) was 694±138 mm^3 and the tumor volume ([3]; 33.3 MBq ^177Lu-DOTA-Bn) was 495±76 mm^3. The “effective dose range (tumor)” value ([3]; mouse, in vivo) was 1800-2200 cGy, the “complete response (CR)” value [3, 7] was “no CR” and the “slight growth delay of the tumors, up to (days following treatment)” value [3, 7] was ~15 days. For the same substance, the “Complete Response” value ([4]; + 11.1 MBq (×2), 22.2 MBq) was 2/5, the “Cures at 40 d post-treatment” value ([4]; + 11.1 MBq (×2), 22.2 MBq) was 1/5 and the “absorbed radiation dose, Blood” value ([4]; + 11.1 MBq (×2), 22.2 MBq) was 0.2 Gy. For the same substance, the “absorbed radiation dose, Kidney” value ([4]; + 11.1 MBq (×2), 22.2 MBq) was 1.2 Gy, the “absorbed radiation dose, Tumor” value ([4]; + 11.1 MBq (×2), 22.2 MBq) was 14.6 Gy and the “Complete Response” value ([4]; + 33.3 MBq (×2), 66.6 MBq) was 5/5. For the same substance, the “Cures at 40 d post-treatment” value ([4]; + 33.3 MBq (×2), 66.6 MBq) was 2/5, the “absorbed radiation dose, Blood” value ([4]; + 33.3 MBq (×2), 66.6 MBq) was 0.6 Gy and the “absorbed radiation dose, Kidney” value ([4]; + 33.3 MBq (×2), 66.6 MBq) was 3.5 Gy. For the same substance, the “absorbed radiation dose, Tumor” value ([4]; + 33.3 MBq (×2), 66.6 MBq) was 43.8 Gy, the “Complete Response” value ([4]; + 55.5 MBq (×2), 111.0 MBq) was 4/4 and the “Cures at 40 d post-treatment” value ([4]; + 55.5 MBq (×2), 111.0 MBq) was 2/4. The “absorbed radiation dose, Blood” value ([4]; + 55.5 MBq (×2), 111.0 MBq) was 1.0 Gy, the “absorbed radiation dose, Kidney” value ([4]; + 55.5 MBq (×2), 111.0 MBq) was 5.9 Gy and the “absorbed radiation dose, Tumor” value ([4]; + 55.5 MBq (×2), 111.0 MBq) was 73.0 Gy. The “alive without recurrence at more than 140 d” value [4, 8] was 2/9, the complete responses [4, 8] was 9/9 and the “complete response, share of test subjects” value ([4]; dual-cycle dosing) was “approximately 80%”. For the same substance, the “time to reach 500 mm^3 in recurrent tumors (individual mice)” value [4, 9] was 34 days and 45 days and 42 days, the “tumor size at time of sacrifice (single mouse)” value [4, 9] was 44 mm^3 and the “Tumor-to-tissue ratio, Kidneys” value ([5]; 2 hr p.i. (n = 5)) was 8.1 ± 1.7. The “Tumor-to-tissue ratio, Kidneys” value ([5]; 24 hr p.i. (n = 4)) was 18.3 ± 13.4 and the “Tumor-to-tissue ratio, Kidneys” value ([5]; 120 hr p.i. (n = 5)) was 14.8 ± 4.9.
